According to patent US20170296456A1, “PRODUCTS AND METHODS FOR TREATING PERIORBITAL DYSCHROMIA” (The Procter & Gamble Company, priority 2016, published 2017):

Tested on: B16-F1 mouse melanoma cell line
Experiment: B16 melanin synthesis inhibition assay
Assay type: cell-based
Settings: B16-F1 cells, OD 410 nm
Procedure: In this example, a commercially available B16-F1 mouse melanoma cell line from American Tissue Culture Collection, Virginia, USA was employed in a conventional melanin synthesis inhibition assay. The cell culture medium used in the assay is 500 mL of Dulbecco's Modified Eagle's Medium (DMEM), 50 mL Fetal Bovine Serum (FBS), and 5 mL of penicillin-streptomycin liquid. B16-F1 cells that are cultured in this medium and grown to greater than 90% confluency will synthesize melanin. While not intending to be bound by any theory, it is hypothesized that the melanin synthesis is stimulated by the culture medium and/or stress induced by growth to a high confluency. […] Equipment used in the assay include a CO2 incubator, such as a Forma Series Model 3110 by Therma Scientific, Massachusetts, USA; a hemocytometer, such as a Bright Line model by Hauser Scientific, Pennsylvania, USA; and a UV-Visible Spectrum Plate Reader, such as a SpectraMax250 from Molecular Devices, California, USA. […] Day 3: The cells from the T-150 flask are trypsinized, and the concentration of cells is determined using the hemacytometer. […] Read the 96 well plate using the UV-Vis Plate Reader at 410 nm to optically measure the amount of melanin produced between wells that are treated with the fava bean extract and control wells that are not. […] The concentration of test agent needed to provide the IC 50 is recorded. […]

Concentration Needed for IC 50 [v/v] | Compound
0.008 | Oc1ccc(OC2CCCCO2)cc1 (centres unmarked) [Deoxyarbutin]
0.01 | O=c1cc(CO)occ1O [Kojic Acid]
